The values below come from ChEMBL document CHEMBL5678818, “Discovery of potent SOS1 inhibitors that block RAS activation via disruption of the RAS-SOS1 interaction” (Proc Natl Acad Sci U S A, 2019).

The target of experiment [1] is Son of sevenless homolog 2 (Homo sapiens, UniProt Q07890). The experiment is described as follows: Inhibition of N-terminal His10-tagged wild-type recombinant human SOS2 catalytic domain (564 to 1043 residues) expressed in Escherichia coli assessed as reduction in KRAS G12C mutant activation preincubated for 10 mins with KRAS followed by SOS2 addition measured after 30 mins in presence of EDA-GTP-DY-647P1 by HTRF analysis. On the technique in general: In TR-FRET formats the signal depends on donor and acceptor labels being close together.

In experiment [2] the target is T1, Guanine nucleotide exchange factor DBS (Homo sapiens, UniProt O15068).
T1 sequence (O15068 whole entry): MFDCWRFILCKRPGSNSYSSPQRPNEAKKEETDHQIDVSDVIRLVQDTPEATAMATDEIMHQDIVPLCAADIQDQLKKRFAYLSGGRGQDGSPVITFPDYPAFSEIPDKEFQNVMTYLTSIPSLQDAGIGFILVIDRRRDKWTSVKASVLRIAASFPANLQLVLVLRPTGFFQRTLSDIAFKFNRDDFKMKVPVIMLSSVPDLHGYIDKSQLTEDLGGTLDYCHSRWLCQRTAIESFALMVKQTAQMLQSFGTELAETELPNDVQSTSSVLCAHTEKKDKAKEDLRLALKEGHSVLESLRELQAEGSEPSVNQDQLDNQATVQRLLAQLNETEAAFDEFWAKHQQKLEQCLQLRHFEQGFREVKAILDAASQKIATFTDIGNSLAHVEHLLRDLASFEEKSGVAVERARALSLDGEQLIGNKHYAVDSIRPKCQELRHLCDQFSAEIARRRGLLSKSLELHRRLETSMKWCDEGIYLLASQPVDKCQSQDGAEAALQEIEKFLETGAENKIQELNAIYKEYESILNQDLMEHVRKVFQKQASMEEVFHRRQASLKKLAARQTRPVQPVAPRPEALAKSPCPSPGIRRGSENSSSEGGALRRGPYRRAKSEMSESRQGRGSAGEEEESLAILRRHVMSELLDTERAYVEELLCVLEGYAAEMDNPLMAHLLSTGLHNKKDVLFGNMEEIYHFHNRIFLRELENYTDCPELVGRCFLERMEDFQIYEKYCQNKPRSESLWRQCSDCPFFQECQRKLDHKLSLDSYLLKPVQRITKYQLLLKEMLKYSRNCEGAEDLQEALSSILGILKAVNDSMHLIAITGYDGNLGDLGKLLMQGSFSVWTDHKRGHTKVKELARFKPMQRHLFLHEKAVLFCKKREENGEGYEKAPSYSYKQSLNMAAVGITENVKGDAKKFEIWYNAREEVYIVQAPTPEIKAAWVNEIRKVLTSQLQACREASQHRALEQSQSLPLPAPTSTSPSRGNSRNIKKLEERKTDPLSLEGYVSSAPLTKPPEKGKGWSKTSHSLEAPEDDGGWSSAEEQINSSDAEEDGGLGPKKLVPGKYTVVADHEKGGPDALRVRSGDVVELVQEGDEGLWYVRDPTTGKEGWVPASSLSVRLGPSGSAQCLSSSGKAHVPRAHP
The experiment is described as follows: Inhibition of human DBS assessed as reduction in CDC42 activation preincubated for 1 min with CDC42 followed by DBS addition measured after 20 mins in presence of EDA-GTP-DY-647P1 by HTRF analysis.

In experiment [3] the target is Epidermal growth factor receptor (Homo sapiens, UniProt P00533). Description: Inhibition of human EGFR using biotin-aminohexyl-AEEEEYFELVAKKK as substrate preincubated for 15 mins followed by substrate/ATP addition measured after 20 mins by FRET assay.
For experiment [4], the target named is T2, Inhibitor of nuclear factor kappa-B kinase subunit epsilon (Homo sapiens) (UniProt Q14164).
T2 sequence (whole entry): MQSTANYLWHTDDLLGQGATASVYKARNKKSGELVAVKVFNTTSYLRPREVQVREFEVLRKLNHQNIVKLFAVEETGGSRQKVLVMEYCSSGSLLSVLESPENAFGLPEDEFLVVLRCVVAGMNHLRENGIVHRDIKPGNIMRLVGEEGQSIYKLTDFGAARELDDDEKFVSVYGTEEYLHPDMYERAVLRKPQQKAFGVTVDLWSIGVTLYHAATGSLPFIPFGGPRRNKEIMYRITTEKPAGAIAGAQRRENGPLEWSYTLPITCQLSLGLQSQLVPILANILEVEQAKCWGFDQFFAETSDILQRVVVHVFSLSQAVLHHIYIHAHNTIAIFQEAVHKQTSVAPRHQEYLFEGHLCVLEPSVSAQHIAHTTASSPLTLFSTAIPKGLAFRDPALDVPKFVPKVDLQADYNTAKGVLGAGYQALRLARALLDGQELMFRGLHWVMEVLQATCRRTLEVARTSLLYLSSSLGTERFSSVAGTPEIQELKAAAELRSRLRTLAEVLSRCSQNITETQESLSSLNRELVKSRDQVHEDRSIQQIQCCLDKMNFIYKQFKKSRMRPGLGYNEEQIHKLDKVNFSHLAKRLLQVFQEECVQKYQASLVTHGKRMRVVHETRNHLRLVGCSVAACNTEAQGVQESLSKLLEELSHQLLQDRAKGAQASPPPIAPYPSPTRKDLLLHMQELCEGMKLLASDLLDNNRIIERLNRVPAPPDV
The experiment is described as follows: Inhibition of IKK-epsilon (unknown origin) assessed as residual activity at 1000 nM by KINOMEscan analysis relative to control.

For experiment [5], the target named is Serine/threonine-protein kinase 33 (Homo sapiens) (UniProt Q9BYT3). Description: Inhibition of STK33 (unknown origin) assessed as residual activity at 1000 nM by KINOMEscan analysis relative to control.
Experiment [6] has as its system MOLM-13. The experiment is described as follows: Antiproliferative activity against human MOLM-13 cells assessed as inhibition of cell viability incubated for 72 hrs by Cell Titer Glo assay. The format is functional, cell-based. Conditions: MOLM-13, 72 h. For orientation: In ATP-based viability assays light output follows the ATP content of the culture.
In experiment [7] the test system is Calu-1. The experiment is described as follows: Antiproliferative activity against human Calu-1 cells assessed as inhibition of cell viability incubated for 72 hrs by Cell Titer Glo assay. The format is functional, cell-based. The settings on record: Calu-1, 72 h.

Where only a bound is given, the exact number is not on record here.

Son of sevenless homolog 2, sequence (Q07890 whole entry, looked up, stated change not applied, the tested form may be a part): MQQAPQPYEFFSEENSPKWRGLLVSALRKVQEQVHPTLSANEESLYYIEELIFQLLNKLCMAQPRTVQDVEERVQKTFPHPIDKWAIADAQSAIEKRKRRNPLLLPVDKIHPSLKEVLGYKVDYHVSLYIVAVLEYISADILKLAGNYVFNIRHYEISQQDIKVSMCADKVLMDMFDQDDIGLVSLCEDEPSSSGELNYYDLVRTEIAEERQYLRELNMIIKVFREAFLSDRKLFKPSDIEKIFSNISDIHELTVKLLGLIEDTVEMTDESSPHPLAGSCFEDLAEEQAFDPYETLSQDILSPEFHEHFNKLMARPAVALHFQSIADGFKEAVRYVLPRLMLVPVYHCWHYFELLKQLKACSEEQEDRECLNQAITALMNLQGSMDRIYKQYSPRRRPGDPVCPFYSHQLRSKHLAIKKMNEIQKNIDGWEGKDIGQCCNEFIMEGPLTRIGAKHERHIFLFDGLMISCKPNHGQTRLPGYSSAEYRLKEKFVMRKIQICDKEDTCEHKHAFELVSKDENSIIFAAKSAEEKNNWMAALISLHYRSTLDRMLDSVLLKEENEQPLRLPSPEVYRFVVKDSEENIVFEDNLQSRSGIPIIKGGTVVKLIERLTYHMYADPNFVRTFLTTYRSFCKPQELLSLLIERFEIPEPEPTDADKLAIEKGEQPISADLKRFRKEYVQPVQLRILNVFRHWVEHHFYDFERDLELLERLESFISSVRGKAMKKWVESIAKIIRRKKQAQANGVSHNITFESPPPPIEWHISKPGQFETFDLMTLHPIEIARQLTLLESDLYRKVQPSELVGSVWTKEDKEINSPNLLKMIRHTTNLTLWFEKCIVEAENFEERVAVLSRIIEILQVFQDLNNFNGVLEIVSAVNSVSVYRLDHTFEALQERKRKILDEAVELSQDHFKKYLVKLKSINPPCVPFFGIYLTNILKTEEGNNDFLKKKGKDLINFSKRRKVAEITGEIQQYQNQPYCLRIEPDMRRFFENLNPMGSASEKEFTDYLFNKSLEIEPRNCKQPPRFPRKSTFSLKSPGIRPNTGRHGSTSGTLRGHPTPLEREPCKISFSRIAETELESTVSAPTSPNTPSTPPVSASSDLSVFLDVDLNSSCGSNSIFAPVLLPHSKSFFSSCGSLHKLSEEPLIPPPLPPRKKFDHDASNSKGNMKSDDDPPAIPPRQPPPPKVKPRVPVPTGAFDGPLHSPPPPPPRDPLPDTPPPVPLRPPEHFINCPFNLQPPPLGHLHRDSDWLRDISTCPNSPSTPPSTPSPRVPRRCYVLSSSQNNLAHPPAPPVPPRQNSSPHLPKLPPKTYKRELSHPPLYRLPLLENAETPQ
Epidermal growth factor receptor, sequence (P00533 whole entry): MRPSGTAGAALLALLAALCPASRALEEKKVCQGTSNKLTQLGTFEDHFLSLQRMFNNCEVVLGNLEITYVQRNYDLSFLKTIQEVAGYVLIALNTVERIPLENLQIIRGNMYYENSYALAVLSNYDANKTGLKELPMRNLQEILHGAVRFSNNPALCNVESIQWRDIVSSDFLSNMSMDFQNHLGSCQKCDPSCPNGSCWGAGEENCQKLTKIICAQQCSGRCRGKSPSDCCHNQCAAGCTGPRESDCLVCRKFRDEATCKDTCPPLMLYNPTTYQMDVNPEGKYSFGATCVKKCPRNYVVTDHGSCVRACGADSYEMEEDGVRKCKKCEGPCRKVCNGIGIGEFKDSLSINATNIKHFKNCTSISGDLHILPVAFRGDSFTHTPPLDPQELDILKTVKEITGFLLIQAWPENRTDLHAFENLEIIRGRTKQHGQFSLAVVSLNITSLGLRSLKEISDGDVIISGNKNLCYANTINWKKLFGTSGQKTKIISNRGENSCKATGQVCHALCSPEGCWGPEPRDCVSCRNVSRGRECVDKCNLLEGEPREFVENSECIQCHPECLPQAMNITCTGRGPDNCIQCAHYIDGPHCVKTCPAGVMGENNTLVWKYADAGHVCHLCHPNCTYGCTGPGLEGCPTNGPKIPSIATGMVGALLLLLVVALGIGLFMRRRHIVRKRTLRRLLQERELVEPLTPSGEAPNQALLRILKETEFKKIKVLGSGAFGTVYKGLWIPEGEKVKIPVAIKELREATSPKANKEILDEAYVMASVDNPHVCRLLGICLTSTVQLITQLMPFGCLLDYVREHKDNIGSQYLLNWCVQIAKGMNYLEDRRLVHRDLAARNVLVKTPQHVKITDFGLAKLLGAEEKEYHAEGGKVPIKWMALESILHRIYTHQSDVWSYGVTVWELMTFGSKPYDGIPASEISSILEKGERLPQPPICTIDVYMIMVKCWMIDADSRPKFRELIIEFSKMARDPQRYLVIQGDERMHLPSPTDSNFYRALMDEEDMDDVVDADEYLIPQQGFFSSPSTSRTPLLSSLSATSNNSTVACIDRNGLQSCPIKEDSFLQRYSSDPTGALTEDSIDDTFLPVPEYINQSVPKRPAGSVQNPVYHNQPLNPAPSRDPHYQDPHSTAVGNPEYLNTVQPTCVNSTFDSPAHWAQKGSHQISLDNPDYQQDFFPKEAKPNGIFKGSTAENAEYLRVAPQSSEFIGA
Serine/threonine-protein kinase 33 (Homo sapiens), sequence (Q9BYT3 whole entry, looked up): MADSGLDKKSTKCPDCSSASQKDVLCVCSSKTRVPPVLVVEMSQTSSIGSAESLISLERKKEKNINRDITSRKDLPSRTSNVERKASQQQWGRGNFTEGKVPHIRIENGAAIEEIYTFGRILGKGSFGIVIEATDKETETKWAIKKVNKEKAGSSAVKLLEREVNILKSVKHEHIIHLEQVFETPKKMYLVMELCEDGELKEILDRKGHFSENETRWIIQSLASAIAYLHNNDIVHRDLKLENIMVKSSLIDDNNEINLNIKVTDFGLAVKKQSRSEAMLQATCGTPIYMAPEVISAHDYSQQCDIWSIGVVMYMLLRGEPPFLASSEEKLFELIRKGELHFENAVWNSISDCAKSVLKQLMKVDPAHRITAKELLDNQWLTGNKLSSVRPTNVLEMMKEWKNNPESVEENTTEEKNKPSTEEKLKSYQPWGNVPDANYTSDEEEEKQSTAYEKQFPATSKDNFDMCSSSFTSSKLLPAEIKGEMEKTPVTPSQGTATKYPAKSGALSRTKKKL

In the case of `COc1cc2nc(C)nc(N[C@H](C)c3cccc(-c4cn[nH]c4)c3)c2cc1OC`, the 50% inhibitory concentration (IC50) in experiment [1] is above 20 µM; in experiment [2], above 20 µM; in experiment [3], above 20 µM; in experiment [6], 3.54 µM; in experiment [7], 17 µM. For the same compound, the Activity was 88% in experiment [4] and 100% in experiment [5].
Take `COc1cc2ncnc(N[C@H](C)c3cccc4ccccc34)c2cc1OC`: the IC50 in experiment [1] was above 20 µM; in experiment [2] it was above 20 µM; in experiment [3], 0.58 µM; in experiment [6], 2.53 µM. The Activity in experiment [4] came to 98%; in experiment [5], 68%.
Consider `COc1cc2nc(C)nc(NC(C)c3ccc(-c4cnc5n4CCC5)s3)c2cc1OC` (configuration not stated), for which the IC50 in experiment [1] was above 20 µM; in experiment [2] it was above 20 µM; in experiment [3], above 20 µM; in experiment [7], 0.87 µM.
`CNCc1ccccc1-c1csc([C@@H](C)Nc2nc(C)nc3cc(OC)c(OC)cc23)c1` [BAY-293]: the IC50 in experiment [1] was above 20 µM; in experiment [2] it was above 20 µM; in experiment [3], above 20 µM; in experiment [6] it was 0.995 µM; in experiment [7], 3.19 µM.

One may read the IC50 as the point on the concentration scale where inhibition reaches its midpoint.
